In patent publication US20260284030A1, “METHODS OF TREATING HEART FAILURE” (THE CHILDREN'S MEDICAL CENTER CORPORATION, priority 2022, published 2026):

Columns and labels:
[1] = tested on: DBA/1 J mice with CIA; test: Collagen induced arthritis (CIA) model, arthritis severity scoring; assay type: in vivo, mouse; settings: for arthritis score: CIA mice, 10 mg/kg oral gavage once daily from day 30, n=8
Text: (§1) DBA/1 J mice were purchased from Jackson Laboratory. All mice were kept specific pathogen free. Experimental protocols were approved by the Institutional Animal Care and Use Committee of Boston Children's Hospital (Protocol number: 20-01-4096R). To conduct a time-course study investigating onset and persistence of the cardiac dysfunction in DBA/1 J, the following groups were studied: DBA/1 J with CIA, DBA/1 J age-matched wild type, DBA/1 J with CIA treated with PAD4 inhibitor, DBA/1 J with CIA treated with 0.5% Methylcellulose (vehicle of the PAD4 inhibitor). The PAD4 specific inhibitor JBI-589 was provided by Jubilant Therapeutics (JBI-589, (R)-(3-aminopiperidin-1-yl)(2-(1-(4-fluorobenzyl)-1H-indol-2-yl)-3-methylimidazo[1,2-a]pyridin-7-yl)methanone). Mice received JBI-589 at a dose of 10 mg/kg via oral gavage for 26 consecutive days. JBI-589 was given in suspension formulation prepared using Tween-80 and 0.5% methyl cellulose. For the PAD4 inhibitor trial, mice were paired depending on their RA severity score and randomly allocated to treatment or control group. All recurring events including animal scoring and administration of inhibitor was done at similar times during the day. All groups were age and sex matched and were fed ad libitum with free access to water. All procedures conform with the NIH Guide for the Care and Use of Laboratory Animals. Experimental protocols were approved by the Institutional Animal Care and Use Committee of Boston Children's Hospital (Protocol number: 20-01-4096R).
DBA/1 J mice aged 8-9 weeks were immunized with an emulsion of 50 μl CFA (Chondrex, Inc.; Catalog no. 7023) and 50 μl of bovine type II collagen (Chondrex, Inc.; catalog no. 20012) injected intra-dermally into the base of the tail on day 0. On day 21, a booster immunization of type II collagen with Freund's incomplete adjuvant (IFA) (catalog no. 7002; Chondrex) was administered intra-dermally at a site proximal to the first injection site. Mice were assessed for development of arthritis using the semi-quantitative, mouse arthritis scoring system provided by Chondrex (chondrex.com). […]

[2] = tested on: DBA/1 J mice with CIA; test: Echocardiography of LV function and geometry in CIA mice; assay type: in vivo, mouse; settings: n=8
Text: as §1, with “All procedures conform with the NIH Guide for the Care and Use of Laboratory Animals. Experimental protocols were approved by the Institutional Animal Care and Use Committee of Boston Children's Hospital (Protocol number: 20-01-4096R).” left out
B-Mode, M-mode, and Doppler echocardiography were performed in DBA/1 J mice with CIA, DBA/1 J mice with CIA treated with PAD4 inhibitor or saline administration and age-matched DBA/1 J mice at day 0, day 25, day 45 and day 56 for time-course analysis of cardiac function. […] Body temperature was regulated through a heat pad and heart rate measured with an electrocardiogram, both were kept consistent between experimental groups (37° Celsius and 400-500 bpm). Echocardiography images were recorded using a Vevo-3100 imaging system with a 25-55-MHz linear probe (MX550D; VisualSonics, Toronto, Canada). Percentage of ejection fraction was calculated in parasternal long-axis view. M-mode was measured at the papillary muscle level in the short-axis view. […]

[3] = tested on: DBA/1 J mice with CIA; test: Immunostaining of LV cryosections (Collagen I, Ly6G/H3Cit, VWF, TGF-β, alpha smooth muscle actin); assay type: in vivo, mouse
Text: as §1
Cryosections of 8-μm were fixed in 4% paraformaldehyde, permeabilized with 0.1% Triton, blocked in 3% BSA, and incubated overnight at 4° C. with the following primary antibodies: Anti-Collagen I (Abcam; ab21286); anti-Ly6G (clone 1A8; BioLegend); anti-H3Cit (Abcam; ab5103); anti-CD31 (BD Pharmingen; 553370); anti-VWF (DakoCytomation; P0226); anti-CD42b (Emfret; M040-0); anti-CD45 (Abcam; ab154885); anti-TGF beta (Abcam; ab66043); anti-alpha smooth muscle actin (Abcam; ab5694), and anti-CD68 (Abcam; ab53444). […]

[4] = tested on: DBA/1 J mice with CIA; test: Peripheral blood counts (circulating neutrophils); assay type: in vivo, mouse; settings: any timepoint
Text: as §1, with “All groups were age and sex matched and were fed ad libitum with free access to water. All procedures conform with the NIH Guide for the Care and Use of Laboratory Animals. Experimental protocols were approved by the Institutional Animal Care and Use Committee of Boston Children's Hospital (Protocol number: 20-01-4096R).” left out
Blood was collected from anesthetized mice via the retroorbital sinus into EDTA-coated capillary tubes and was analyzed by a Hemavet 950FS (Drew Scientific) for complete blood counts. […]

[5] = tested on: NET formation; test: Neutrophil isolation and NETosis assay; assay type: in vivo, mouse; settings: CIA mice; n=4; p=0.03
Text: as §1, with “Animals. […]” for “Animals. Experimental protocols were approved by the Institutional Animal Care and Use Committee of Boston Children's Hospital (Protocol number: 20-01-4096R).”

[6] = Body weight of CIA mice; assay type: in vivo, mouse; settings: day 56, n=8
Text: as §1, with “Animals. […]” for “Animals. Experimental protocols were approved by the Institutional Animal Care and Use Committee of Boston Children's Hospital (Protocol number: 20-01-4096R).”

[7] = tested on: arthritis in a mouse model; settings: prophylactic treatment; cited from earlier work
[8] = tested on: primary tumor and metastasis; settings: cancer; cited from earlier work

Structure (SMILES): Cc1c(-c2cc3ccccc3n2Cc2ccc(F)cc2)nc2cc(C(=O)N3CCC[C@@H](N)C3)ccn12 [JBI-589, (R)-(3-aminopiperidin-1-yl)(2-(1-(4-fluorobenzyl)-1H-indol-2-yl)-3-methylimidazo[1,2-a]pyridin-7-yl)methanone]
- arthritis score ([1]; Day 36): 5±0.8
- arthritis score ([1]; day 44, median (quartiles)): 9 (7-11)
- effect on RA (arthritis) ([1]; twice daily regime (unpublished data)): significantly inhibits RA
- diastolic function as reflected by the E/A ratio ([2]; CIA mice treated 26 consecutive days, 10 mg/kg once daily oral): comparable to healthy mice
- E/A ratio, higher than the placebo CIA group ([2]; CIA mice treated 26 consecutive days, 10 mg/kg once daily oral, p<0.0001): 40%
- systolic left ventricular function vs vehicle ([2]; CIA mice treated 26 days, p=0.09): no difference
- collagen type 1 deposition in the LV, lower than the vehicle treated control ([3]; CIA mice treated 26 days, n=5, p=0.02): 5 times
- myofibroblast concentration (alpha-smooth-muscle actin) ([3]; CIA mice, n=5, p=0.02): reduced
- deposition of TGF-β in heart tissue ([3]; CIA mice, n=6, p=0.003): reduced
- number of circulating neutrophils vs vehicle [4]: no difference
- NET formation [5]: reduced
- body weight (health parameter) [6]: improved
- effect on arthritis [7]: alleviates arthritis
- neutrophil recruitment [8]: blocking neutrophil recruitment into the primary tumor and metastasis
